Key:
[1] = system: allergic contact dermatitis in mice; test: Test Example: inhibition of allergic contact dermatitis (ACD) in vivo, pinnal weight and MPO activity; conditions: oral single dose 0.01-10.0 mg/kg
Method: Groups of 8 female mice are sensitized epicutaneously with 50 μl of 2% oxazolone on the shaved ventral abdomen (day 1) and challenged with 10 μl of 0.2% oxazolone on the inner surface of the right ear (day 8). The unchallenged left ears serve as normal controls and dermatitis is evaluated from the difference in pinnal weight which is taken as a measure of inflammatory swelling (day 9). In addition, activity of myeloperoxidase (MPO) serving as a measure of leukocyte influx in ear homogenates are determined as described by Bradley et al., J. Invest. Dermatol; 78:206-209 (1982). The animals are treated orally 2 hours after challenge with the test compound of example 10. Activity is calculated as the percentage of inhibition of inflammatory auricular swelling and of MPO activity relative to animals treated with the vehicle alone. For comparison mice are treated intraperitoneally with 100 μl monoclonal anti-mouse LFA-1 antibody 1 hour before challenge and evaluated as described.

LFA-1/ICAM-1 = target: T1, LFA-1/ICAM-1 (Homo sapiens, UniProt P20701); test: Cell free assay: binding of soluble human ICAM-1 to immobilized human LFA-1; conditions: immobilized human LFA-1, biotinylated ICAM-1, read-out: IC50, inhibition of adhesion of LFA-1 to ICAM-1
T1 construct: endogenous in cells; ICAM-1-Cκ fusion: made in house in the baculovirus system
Method: The assay determines the binding of soluble human ICAM-1 to immobilized human LFA-1. LFA-1 is purified from JY cells, a human lymphoblastoid B cell-line, by immunoaffinity chromatography analogously as described by Dustin et al., J. Immunol. 148, 2654-2663, 1992. ICAM-1 mouse Cκ fusion protein (ICAM-1) is produced using the baculovirus system as described by Weitz-Schmidt et al., Anal. Biochem. 238, 184-190, 1996. Purified LFA-1 is diluted 1:20 in phosphate buffered saline (PBS) containing 2 mM MgCl2, pH 7.4 and coated onto microtiter plates (Nunc) at 37° for 3 hours. Plates are blocked with 1% heat-treated bovine serum albumin in PBS for 2 hours at 37° followed by a washing step using PBS, 2 mM MgCl2, 1% fetal calf serum, pH 7.4 (assay buffer). Compounds of the present invention (10 mM solution in DMSO) are diluted in assay buffer and added to the plates. Biotinylated recombinant ICAM-1 in assay buffer (6 μg/ml) is added and allowed to bind at 37° for one hour. After incubation, wells are washed with assay buffer. Streptavidin-peroxidase diluted 1:5000 in assay buffer is added and incubated for 45 min at 37°. […] The reaction is stopped after 20 minutes and bound ICAM-1 is determined by measuring the optical density at 405 nm in a microplate reader.

[2] = system: allergic contact dermatitis in NMRI mice; test: Allergic contact dermatitis (ACD) in vivo test system, oxazolone, auricular weight; conditions: p.o., 0.03 mg/kg, 2 hours after challenge
Method: Groups of 8 female NMRI mice are sensitized on the shaved abdomen with 50 μl of oxazolone (2% in acetone) and challenged with 10 μl of 0.2% oxazolone on the inner surface of the right ear 7 days later. The unchallenged left ears serve as normal controls and dermatitis is evaluated from the individual differences in auricular weights, which are taken as a measure of inflammatory swelling 24 hours after the challenge. Dermatitis is evaluated in test- and control groups. The test groups are treated with the test compounds orally (2 hours after challenge), the controls are treated similarly with the vehicles alone. For oral administration the compounds are administered in an oil in H2O emulsion. The data of the test- and the vehicle-treated control groups are statistically analysed by ANOVA followed by Dunnet T-test (normal distribution or data) or by H and U-test, respectively. […] For example, compound of Example 14 has an inhibiting effect in this assay of >30% when administered p.o. at a dose of 0.03 mg/kg.

T1 sequence (P20701 26-1170): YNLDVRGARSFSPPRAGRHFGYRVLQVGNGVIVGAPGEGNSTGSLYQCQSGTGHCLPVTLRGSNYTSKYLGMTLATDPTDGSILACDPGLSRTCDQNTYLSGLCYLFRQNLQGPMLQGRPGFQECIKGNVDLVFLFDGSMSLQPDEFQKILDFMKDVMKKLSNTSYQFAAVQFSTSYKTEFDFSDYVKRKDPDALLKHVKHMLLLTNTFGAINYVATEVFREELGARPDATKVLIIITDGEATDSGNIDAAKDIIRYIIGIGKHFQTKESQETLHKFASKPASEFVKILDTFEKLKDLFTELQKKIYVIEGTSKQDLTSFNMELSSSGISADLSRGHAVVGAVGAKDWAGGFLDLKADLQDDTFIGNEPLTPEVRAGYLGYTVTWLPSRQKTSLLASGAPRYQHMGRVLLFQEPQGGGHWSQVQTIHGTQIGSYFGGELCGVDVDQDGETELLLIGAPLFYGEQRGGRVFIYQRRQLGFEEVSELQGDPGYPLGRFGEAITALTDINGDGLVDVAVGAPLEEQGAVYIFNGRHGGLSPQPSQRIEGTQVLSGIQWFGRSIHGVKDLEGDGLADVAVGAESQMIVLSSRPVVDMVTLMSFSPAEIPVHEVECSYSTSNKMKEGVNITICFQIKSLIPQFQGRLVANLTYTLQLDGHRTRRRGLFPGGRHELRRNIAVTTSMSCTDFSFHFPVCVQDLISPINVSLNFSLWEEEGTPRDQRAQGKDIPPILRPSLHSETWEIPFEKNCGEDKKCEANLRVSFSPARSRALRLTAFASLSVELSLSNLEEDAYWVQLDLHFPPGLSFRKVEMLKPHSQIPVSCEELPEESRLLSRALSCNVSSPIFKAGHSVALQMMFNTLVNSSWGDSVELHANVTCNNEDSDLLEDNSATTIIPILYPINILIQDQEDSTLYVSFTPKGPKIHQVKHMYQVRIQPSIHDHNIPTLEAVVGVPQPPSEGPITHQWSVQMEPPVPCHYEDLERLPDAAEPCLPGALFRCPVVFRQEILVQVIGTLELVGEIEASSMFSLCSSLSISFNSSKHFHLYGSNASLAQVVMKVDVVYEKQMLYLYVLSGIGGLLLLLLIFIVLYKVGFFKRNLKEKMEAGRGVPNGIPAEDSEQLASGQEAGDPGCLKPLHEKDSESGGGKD
T1 sequence (P05107 23-769 partner): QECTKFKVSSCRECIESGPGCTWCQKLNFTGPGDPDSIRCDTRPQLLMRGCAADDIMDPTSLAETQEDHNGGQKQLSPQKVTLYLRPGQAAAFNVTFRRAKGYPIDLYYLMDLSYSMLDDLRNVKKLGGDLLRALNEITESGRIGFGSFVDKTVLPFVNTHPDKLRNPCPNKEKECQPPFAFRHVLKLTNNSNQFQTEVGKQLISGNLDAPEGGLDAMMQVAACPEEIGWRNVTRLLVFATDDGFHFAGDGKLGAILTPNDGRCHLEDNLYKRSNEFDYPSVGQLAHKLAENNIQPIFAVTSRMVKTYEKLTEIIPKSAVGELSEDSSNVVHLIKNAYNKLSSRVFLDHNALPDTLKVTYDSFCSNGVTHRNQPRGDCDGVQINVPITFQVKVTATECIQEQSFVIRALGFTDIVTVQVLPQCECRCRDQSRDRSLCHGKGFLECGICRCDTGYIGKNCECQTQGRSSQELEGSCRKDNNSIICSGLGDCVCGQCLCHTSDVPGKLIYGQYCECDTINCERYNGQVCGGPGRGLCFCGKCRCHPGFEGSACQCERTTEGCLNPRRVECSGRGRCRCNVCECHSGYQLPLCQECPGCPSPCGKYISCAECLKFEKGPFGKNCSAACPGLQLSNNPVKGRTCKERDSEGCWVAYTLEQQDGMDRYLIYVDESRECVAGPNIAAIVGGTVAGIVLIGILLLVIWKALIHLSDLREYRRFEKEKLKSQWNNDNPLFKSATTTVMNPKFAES

Structure (SMILES)	inhibition of the inflammatory response ([1]; 2 hours after challenge)	inhibition of MPO activity versus inhibition of swelling ([1]; ear homogenates)	IC50 (LFA-1/ICAM-1) [nM]	inhibiting effect in allergic contact dermatitis (auricular swelling) [2] [%]
C[C@@H]1CCN([C@H](Cc2cccc3ccccc23)C(N)=O)C(=O)[C@H](c2ccc(F)c(Cl)c2)N1C(=O)Cc1ccc2ncccc2c1 [Example 10, (R)-2-[(3S,5R)-3-(3-Chloro-4-fluoro-phenyl)-5-methyl-2-oxo-4-(2-quinolin-6-yl-acetyl)-[1,4]diazepan-1-yl]-3-naphthalen-1-yl-propionamide]	40-50%	Inhibition of swelling compared with inhibition of MPO activity is observed		
CC1CCN(C(Cc2cccc3ccccc23)C(N)=O)C(=O)C(c2cccc(F)c2)N1C(=O)Cc1ccc2c(c1)OCO2 [Example 13, (R)-2-[4-(2-Benzo[1,3]dioxol-5-yl-acetyl)-3,5-cis-3-(3-fluoro-phenyl)-5-methyl-2-oxo-[1,4]diazepan-1-yl]-3-naphthalen-1-yl-propionamide]			430	
C[C@@H]1CCN([C@H](Cc2cccc3ccccc23)C(N)=O)C(=O)[C@H](c2cccc(Cl)c2)N1C(=O)Cc1ccc2c(c1)OCO2 [Example 14, (R)-2-[(3S,5R)-4-(2-Benzo[1,3]dioxol-5-yl-acetyl)-3-(3-chloro-phenyl)-5-methyl-2-oxo-[1,4]diazepan-1-yl]-3-naphthalen-1-yl-propionamide]			90	> 30

Reference: patent US7419976B2, “Diazepanes derivatives useful as IFA inhibitors” (Novartis AG, priority 2003, dated 2008)
